From PubChem BioAssay (NCI) come the findings set out here.

Some test systems named below: EKVX NSCLC; HCC-2998 colon; HOP-92 NSCLC; KM12 colon; MOLT-4 leukemia; NCI-H226 lung; RPMI-8226 leukemia; SF-268 CNS; SK-OV-3 ovarian; SW-620 colon.
What all share (assay): growth of human tumour cells (NCI), 48 h

Several values for one entry are separate records, joined by “and”; a condition that tells them apart may be missing. Identical values can stand only once.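 Results reflect a 48-hour exposure of cells in 96-well plates to compound at five concentrations. The concentration for 50% growth inhibition is given as GI50. TGI is the concentration that stops growth completely.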

`CN(C)CCCC1(c2ccc(F)cc2)OCc2cc(-c3cccc4[nH]ccc34)ccc21` (stereo not given): the GI50 is 1.78 µM in the test on EKVX NSCLC; 1.54 µM with HCC-2998 colon; 1.25 µM with HOP-92 NSCLC; 1.74 µM in the test on KM12 colon; 1.49 µM in the test on MOLT-4 leukemia; 1.76 µM in the test on NCI-H226 lung. Further, the GI50 in the test with RPMI-8226 leukemia is 1.77 µM; in the test with SF-268 CNS, 1.58 µM; in the test with SK-OV-3 ovarian, 1.75 µM; in the test on SW-620 colon, 1.77 µM. Further, the TGI in the test on EKVX NSCLC was 3.3 µM; with HCC-2998 colon, 2.94 µM; in the test with HOP-92 NSCLC, 2.81 µM; with KM12 colon it was 3.27 µM; in the test on MOLT-4 leukemia, 3.22 µM; in the test with NCI-H226 lung, 3.52 µM. Moreover, the TGI with RPMI-8226 leukemia turned out to be 4.12 µM; in the test on SF-268 CNS it was 3.03 µM; with SK-OV-3 ovarian, 3.25 µM; in the test on SW-620 colon, 3.54 µM.
With `CNC(=O)c1ncccc1Nc1nc(Nc2cc3c(cc2OC)CCCN3C(=O)CN(C)C)nc2[nH]ccc12`, the GI50 was 1.55 µM in the test with EKVX NSCLC; 0.518 µM in the test on HCC-2998 colon; 0.049 µM in the test on HOP-92 NSCLC; 0.728 µM in the test on KM12 colon; 1.05 µM in the test on MOLT-4 leukemia; 1.91 µM in the test with NCI-H226 lung. Moreover, the GI50 in the test on RPMI-8226 leukemia is 0.842 µM; in the test on SF-268 CNS, 1.46 µM; with SK-OV-3 ovarian, 1.67 µM; with SW-620 colon it was 0.224 µM. Further, the TGI in the test on EKVX NSCLC amounted to 6.52 µM; in the test with HCC-2998 colon, 4.12 µM; in the test with HOP-92 NSCLC it was 1.98 µM; with KM12 colon, 3.04 µM; in the test with MOLT-4 leukemia it was 5.76 µM; in the test on NCI-H226 lung it was 5.78 µM. For the same compound, the TGI in the test with RPMI-8226 leukemia was found to be 3.89 µM; in the test with SF-268 CNS it was 5.4 µM; in the test with SK-OV-3 ovarian, 5.86 µM; with SW-620 colon it was 3.22 µM.
In the case of `N#CC1(c2ccc(NC(=O)c3cccnc3NCc3ccncc3)cc2)CCCC1`, the GI50 in the test with EKVX NSCLC is 11.8 µM; in the test with HCC-2998 colon, 25.8 µM; with HOP-92 NSCLC, 19.3 µM; with KM12 colon, 23 µM; in the test on MOLT-4 leukemia it was 6.26 µM; in the test with NCI-H226 lung, 12.3 µM. Further, the GI50 was 6.73 µM in the test with RPMI-8226 leukemia, 27 µM in the test on SF-268 CNS, 21.7 µM in the test with SK-OV-3 ovarian and 24.2 µM with SW-620 colon. Besides, the TGI is above 100 µM in the test with EKVX NSCLC; above 100 µM with HCC-2998 colon; above 100 µM in the test on HOP-92 NSCLC; 73 µM in the test with KM12 colon; 31.9 µM in the test on MOLT-4 leukemia; 75.1 µM in the test with NCI-H226 lung. For the same compound, the TGI is 31.4 µM in the test with RPMI-8226 leukemia, above 100 µM with SF-268 CNS, above 84.1 µM with SK-OV-3 ovarian and 72.1 µM in the test with SW-620 colon.
As for `NNC(=O)C(=O)N/N=C1/CCCC1C(=O)CCC(=O)Nc1ccc(Cl)cc1` (stereo not given), the TGI in the test with EKVX NSCLC, in the test with HCC-2998 colon, in the test with HOP-92 NSCLC, in the test with KM12 colon, in the test with MOLT-4 leukemia and in the test with NCI-H226 lung was above 100 µM throughout. Besides, the TGI in the test with RPMI-8226 leukemia, with SF-268 CNS, in the test with SK-OV-3 ovarian and in the test on SW-620 colon was above 100 µM throughout.
For `Cc1nn(-c2ccc(Cl)cc2)c2ncnc(N/N=C/c3ccccc3O)c12`, the GI50 in the test with EKVX NSCLC is 0.96 µM and 0.993 µM; with HCC-2998 colon, 0.464 µM and 0.742 µM; in the test with HOP-92 NSCLC it was 1.11 µM and 0.714 µM; in the test on KM12 colon, 0.53 µM and 0.385 µM; in the test on MOLT-4 leukemia it was 0.518 µM and 0.326 µM; in the test with NCI-H226 lung, 3.86 µM and 2.55 µM. The GI50 was 0.699 µM and 0.714 µM in the test with RPMI-8226 leukemia; 0.401 µM and 0.312 µM with SF-268 CNS; 0.615 µM and 0.427 µM in the test with SK-OV-3 ovarian; 1.35 µM and 0.505 µM in the test on SW-620 colon. Besides, the TGI in the test on EKVX NSCLC was 30.8 µM and > 100 µM; in the test on HCC-2998 colon, above 100 µM; in the test with HOP-92 NSCLC it was 34.6 µM and 16.3 µM; in the test on KM12 colon it was above 100 µM; with MOLT-4 leukemia, above 100 µM; in the test with NCI-H226 lung, 40.7 µM and > 29.5 µM. The TGI in the test on RPMI-8226 leukemia is above 100 µM; with SF-268 CNS, 15.9 µM and > 37.3 µM; in the test on SK-OV-3 ovarian, 26.5 µM and 10.8 µM; with SW-620 colon, above 100 µM.
Turning to `O=C(/C=C/C12c3ccccc3C(c3ccccc31)C1C(=O)NC(=O)C12)c1ccccn1` (stereo not given), the GI50 is 1.91 µM with EKVX NSCLC; 1.88 µM in the test on HCC-2998 colon; 1.98 µM in the test on HOP-92 NSCLC; 1.43 µM in the test on KM12 colon; 2.11 µM with MOLT-4 leukemia; 2.98 µM with NCI-H226 lung. Further, the GI50 in the test with RPMI-8226 leukemia was 1.22 µM; with SF-268 CNS, 1.61 µM; in the test on SK-OV-3 ovarian, 2.4 µM; with SW-620 colon, 1.69 µM. The TGI was 4.93 µM in the test with EKVX NSCLC; 3.51 µM in the test on HCC-2998 colon; 4.54 µM in the test with HOP-92 NSCLC; 3.03 µM with KM12 colon; 9.55 µM in the test with MOLT-4 leukemia; 11.7 µM in the test on NCI-H226 lung. Moreover, the TGI with RPMI-8226 leukemia amounted to 4.3 µM; in the test on SF-268 CNS, 4.35 µM; in the test on SK-OV-3 ovarian, 8.31 µM; with SW-620 colon, 5.03 µM.
As for `O=C1C=C[C@H](O)[C@@]2(CO)O[C@@H]12`, the GI50 was 9.69 µM in the test on EKVX NSCLC; 17.2 µM in the test on HCC-2998 colon; 4.77 µM with HOP-92 NSCLC; 12.1 µM in the test on KM12 colon; 2.99 µM in the test with MOLT-4 leukemia; 17.3 µM with NCI-H226 lung. For the same compound, the GI50 was 3.38 µM with RPMI-8226 leukemia, 15.3 µM in the test on SF-268 CNS, 28.4 µM with SK-OV-3 ovarian and 2.23 µM with SW-620 colon. For the same compound, the TGI in the test on EKVX NSCLC was 49.9 µM; in the test on HCC-2998 colon, 31 µM; in the test on HOP-92 NSCLC, 14.6 µM; in the test on KM12 colon, 24.5 µM; with MOLT-4 leukemia it was 16.5 µM; in the test with NCI-H226 lung it was 50.7 µM. Moreover, the TGI in the test with RPMI-8226 leukemia was 12 µM; with SF-268 CNS it was 29 µM; in the test on SK-OV-3 ovarian it was above 96.1 µM; with SW-620 colon, 5.33 µM.
For `O=C(NC12CC3CCC1CC(C3)C2)[C@@H]1CCCN1C(=O)OCc1ccccc1` (stereo not given in full), the TGI was above 100 µM in the test on EKVX NSCLC; above 100 µM in the test on HCC-2998 colon; 71.5 µM in the test with HOP-92 NSCLC; above 100 µM in the test on KM12 colon; above 100 µM with MOLT-4 leukemia; above 100 µM in the test on NCI-H226 lung. The TGI in the test on RPMI-8226 leukemia, with SF-268 CNS, in the test on SK-OV-3 ovarian and in the test on SW-620 colon was above 100 µM throughout.
